From patent publication US12391737B2, “Soluble NPY2 receptor agonists” (Boehringer Ingelheim International GmbH, priority 2020, dated 2025)
*1 amine or outer side, *2 acyl side, *3 side chain or, on linkers, in order; H or OH if unused. Where a SMILES comes first, the peptide text is derived from it. Side-chain parts run from the residue outwards. The star is where a group is joined. C18 diacid = O=C(O)CCCCCCCCCCCCCCCCC(=O)*; γGlu = O=C(O)[C@H](CCC(=O)[*:2])N[*:1]; Isovaleryl = CC(C)CC(=O)*; Ahx = NCCCCCC(=O)O

Columns and labels:
Solubility determination = settings: for Sol6: pH 6; for Sol7: pH 7
Procedure, shortened: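 Solubility is derived from the ratio of reversed-phase peak areas, filtered sample over a control dissolved at 1 mg/ml in 50% acetonitrile. Peptides are agitated for 2 hours at room temperature in 0.1 M sodium diphosphate at pH 6.4 or 7.0, aiming at 10 mg/ml.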

[1] = biological target: T1, Human Neuropeptide Y2 Receptor (Homo sapiens, UniProt P49146); assay: Radioligand binding competition assay (RLB); settings: Table 3, 125I-PYY(1-36) competition; read-out: Ki
T1 construct: purchased CHEMICON HTS066M
T1 sequence (P49146 1-381): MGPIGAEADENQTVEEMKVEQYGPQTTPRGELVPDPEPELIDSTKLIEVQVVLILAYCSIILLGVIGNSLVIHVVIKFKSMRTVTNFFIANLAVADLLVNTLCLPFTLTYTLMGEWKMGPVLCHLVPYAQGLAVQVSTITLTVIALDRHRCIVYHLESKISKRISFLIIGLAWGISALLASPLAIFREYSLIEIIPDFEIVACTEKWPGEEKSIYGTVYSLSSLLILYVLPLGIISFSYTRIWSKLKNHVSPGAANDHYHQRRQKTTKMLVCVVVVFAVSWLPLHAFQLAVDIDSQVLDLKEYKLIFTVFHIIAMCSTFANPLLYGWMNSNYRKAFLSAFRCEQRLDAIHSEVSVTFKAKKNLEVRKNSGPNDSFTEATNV
Procedure, shortened: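 IC50 values come from sigmoidal dose-response fits of scintillation counts after peptides competed for radioligand binding at receptor membranes (0.5 μg protein/well). Incubation ran 2 h at room temperature in HEPES buffer, pH 7.4, with Mg2+, Ca2+ and 0.2% ovalbumin.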

[2] = biological target: T2, human NPY2 receptor (hY2R) (Homo sapiens, UniProt P49146); assay: HTRF cAMP Gi assay, hY2R
T2 sequence (P49146 1-381): T1 sequence (P49146 1-381)
Description: The Homogenous Time Resolved fluorescence (HTRF) technology optimized for Gi coupled receptors has thoroughly been described in Cisbio cAMP Gi kit manual. Briefly, the production of intracellular cAMP will generate a competition between unlabeled cAMP and exogenously added d2-cAMP for anti-cAMP antibodies conjugated to cryptate. CHO-K1 cells stably expressing the human NPY1, NPY2, NPY4 and NPY5 receptors were used with the cells brought to life from a frozen stock immediately before assay performance. 2000 cells per well were applied for all four NPY receptor subtype assays. A 384-well format was used applying a total volume of 20 μl using 5 μl cells, 2.5 μl peptide agonist, 2.5 μl forskolin and 5 μl of each of the fluorophores. […] Concentration-response evaluation of compounds was performed with 11 concentrations of agonist peptides (covering 3 decades). EC50 values were calculated by nonlinear regression using sigmoid concentration-response with variable slope.

[3] = biological target: T3, human NPY5 receptor (hY5R) (Homo sapiens, UniProt Q15761); assay: HTRF cAMP Gi assay, hY5R
T3 sequence (Q15761 1-445): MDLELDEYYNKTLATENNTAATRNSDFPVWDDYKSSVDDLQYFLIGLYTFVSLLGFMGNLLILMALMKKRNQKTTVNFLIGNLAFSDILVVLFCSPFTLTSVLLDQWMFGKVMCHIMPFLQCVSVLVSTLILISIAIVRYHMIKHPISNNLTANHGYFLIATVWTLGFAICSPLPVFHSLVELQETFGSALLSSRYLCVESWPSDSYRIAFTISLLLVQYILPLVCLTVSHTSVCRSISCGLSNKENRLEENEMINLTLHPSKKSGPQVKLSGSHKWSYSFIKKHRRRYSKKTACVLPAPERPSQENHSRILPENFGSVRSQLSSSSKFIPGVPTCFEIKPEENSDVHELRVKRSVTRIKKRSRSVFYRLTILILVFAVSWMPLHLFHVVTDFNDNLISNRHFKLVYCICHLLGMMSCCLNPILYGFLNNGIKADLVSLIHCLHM

[4] = biological target: T4, human NPY1 receptor (hY1R) (Homo sapiens, UniProt P25929); assay: HTRF cAMP Gi assay, hY1R; type: cell-based; settings: CHO-K1 cells
T4 construct: expressed in transfected cells; host or cells: CHO-K1
T4 sequence (P25929 1-384): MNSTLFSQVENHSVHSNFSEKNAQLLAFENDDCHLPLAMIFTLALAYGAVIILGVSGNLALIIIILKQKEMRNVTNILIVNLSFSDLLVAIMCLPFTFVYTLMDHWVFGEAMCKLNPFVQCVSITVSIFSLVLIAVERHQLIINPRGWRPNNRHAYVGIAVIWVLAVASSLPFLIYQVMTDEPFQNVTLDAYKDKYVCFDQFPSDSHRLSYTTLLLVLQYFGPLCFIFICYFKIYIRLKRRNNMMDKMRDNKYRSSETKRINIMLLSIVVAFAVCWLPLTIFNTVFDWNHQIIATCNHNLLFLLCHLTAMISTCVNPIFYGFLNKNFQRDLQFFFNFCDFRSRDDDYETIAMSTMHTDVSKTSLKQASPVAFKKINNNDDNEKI

[5] = biological target: T5, human NPY4 receptor (hY4R) (Homo sapiens, UniProt P50391); assay: HTRF cAMP Gi assay, hY4R; type: cell-based; settings: CHO-K1 cells
T5 construct: expressed in transfected cells; host or cells: CHO-K1
T5 sequence (P50391 whole entry): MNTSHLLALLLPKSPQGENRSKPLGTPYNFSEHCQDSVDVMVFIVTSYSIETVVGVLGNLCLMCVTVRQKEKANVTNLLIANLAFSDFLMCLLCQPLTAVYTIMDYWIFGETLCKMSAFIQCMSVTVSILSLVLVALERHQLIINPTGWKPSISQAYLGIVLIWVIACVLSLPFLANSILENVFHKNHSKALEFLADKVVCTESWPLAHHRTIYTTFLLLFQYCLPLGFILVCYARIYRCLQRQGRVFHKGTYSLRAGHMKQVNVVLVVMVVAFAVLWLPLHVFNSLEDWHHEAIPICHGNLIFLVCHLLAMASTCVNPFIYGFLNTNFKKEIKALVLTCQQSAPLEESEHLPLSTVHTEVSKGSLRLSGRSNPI

Sol6 (Solubility determination)	Sol7 (Solubility determination)	Ki [1]	EC50 [2]	EC50 [3]	EC50 [4]	EC50 [5]	Compound
9.0 mg/mL	9.2 mg/mL	2.79 nM	0.197 nM	> 5000 nM	–	–	CC(C)CC(=O)N[C@@H](C)C(=O)N1CCC[C@H]1C(=O)N[C@@H](CCC(=O)O)C(=O)N[C@@H](CCCCNC(=O)CCCCCNC(=O)CC[C@H](NC(=O)CCCCCCCCCCCCCCCCC(=O)O)C(=O)O)C(=O)N1CCC[C@H]1C(=O)N[C@@H](CCC(=O)O)C(=O)N[C@@H](C)C(=O)N[C@@H](CC(=O)O)C(=O)N[C@@H](C)C(=O)N[C@@H](CCC(=O)O)C(=O)N1CCC[C@H]1C(=O)N[C@@H](CCC(=O)O)C(=O)N[C@@H](CCC(=O)O)C(=O)N[C@@H](CC(C)C)C(=O)N[C@@H](CCC(N)=O)C(=O)N[C@@H](CCCNC(=N)N)C(=O)N[C@@H](Cc1ccc(O)cc1)C(=O)N[C@@H](Cc1ccc(O)cc1)C(=O)N[C@H](C(=O)N[C@@H](CO)C(=O)N[C@@H](CC(C)C)C(=O)N[C@@H](CCCNC(=N)N)C(=O)N[C@@H](Cc1c[nH]cn1)C(=O)N[C@@H](Cc1ccc(O)cc1)C(=O)N[C@@H](Cc1ccc(O)cc1)C(=O)N[C@@H](CC(N)=O)C(=O)N[C@@H](Cc1c[nH]c2ccccc12)C(=O)N[C@@H](CC(C)C)C(=O)N[C@H](C(=O)N[C@@H](CCCNC(=N)N)C(=O)N[C@@H](CCC(N)=O)C(=O)N[C@@H](CCCNC(=N)N)C(=O)N[C@@H](Cc1ccc(O)cc1)C(N)=O)[C@@H](C)O)C(C)C [Compound 72, N{alpha-4}-(3-methylbutanoyl)-N{epsilon-7}-(6-[(4S)-4-carboxy-4-(17-carboxyheptadecanamido)butanamido]hexanoyl)-[4A,7K,9E,10A,13E,18Q,22V,28Y,30W,31L]-hPYY(4-36)]
8.4 mg/mL	9.8 mg/mL	3.57 nM	0.086 nM	> 5000 nM	–	–	CC(C)CC(=O)N[C@@H](C)C(=O)N1CCC[C@H]1C(=O)N[C@@H](CCC(=O)O)C(=O)N[C@@H](CCCCNC(=O)CCCCCNC(=O)CC[C@H](NC(=O)CCCCCCCCCCCCCCCCC(=O)O)C(=O)O)C(=O)N1CCC[C@H]1C(=O)N[C@@H](CCC(=O)O)C(=O)N[C@@H](C)C(=O)N[C@@H](CC(=O)O)C(=O)N[C@@H](C)C(=O)N[C@@H](CO)C(=O)N1CCC[C@H]1C(=O)N[C@@H](CCC(=O)O)C(=O)N[C@@H](CCC(=O)O)C(=O)N[C@@H](CC(C)C)C(=O)N[C@@H](CCC(N)=O)C(=O)N[C@@H](CCCNC(=N)N)C(=O)N[C@@H](Cc1ccc(O)cc1)C(=O)N[C@@H](Cc1ccc(O)cc1)C(=O)N[C@H](C(=O)N[C@@H](CO)C(=O)N[C@@H](CC(C)C)C(=O)N[C@@H](CCCNC(=N)N)C(=O)N[C@@H](Cc1c[nH]cn1)C(=O)N[C@@H](Cc1ccc(O)cc1)C(=O)N[C@@H](Cc1ccc(O)cc1)C(=O)N[C@@H](CC(N)=O)C(=O)N[C@@H](Cc1c[nH]c2ccccc12)C(=O)N[C@@H](CC(C)C)C(=O)N[C@H](C(=O)N[C@@H](CCCNC(=N)N)C(=O)N[C@@H](CCC(N)=O)C(=O)N[C@@H](CCCNC(=N)N)C(=O)N[C@@H](Cc1ccc(O)cc1)C(N)=O)[C@@H](C)O)C(C)C [Compound 196, N{alpha-4}-(3-methylbutanoyl)-N{epsilon-7}-(6-[(4S)-4-carboxy-4-(17-carboxyheptadecanamido)butanamido]hexanoyl)-[4A,7K,9E,10A,18Q,22V,28Y,30W,31L]-hPYY(4-36)]
9.3 mg/mL	8.4 mg/mL	1.28 nM	0.086 nM	> 5000 nM	–	–	CC(C)CC(=O)N[C@@H](C)C(=O)N1CCC[C@H]1C(=O)N[C@@H](CCC(=O)O)C(=O)N[C@@H](CCCCNC(=O)CCCCCNC(=O)CC[C@H](NC(=O)CCCCCCCCCCCCCCCCC(=O)O)C(=O)O)C(=O)N1CCC[C@H]1C(=O)N1CCC[C@H]1C(=O)N[C@@H](CCC(=O)O)C(=O)N[C@@H](CC(=O)O)C(=O)N[C@@H](C)C(=O)N[C@@H](CO)C(=O)N1CCC[C@H]1C(=O)N[C@@H](CCC(=O)O)C(=O)N[C@@H](CCC(=O)O)C(=O)N[C@@H](CC(C)C)C(=O)N[C@@H](CCC(N)=O)C(=O)N[C@@H](CCCNC(=N)N)C(=O)N[C@@H](Cc1ccc(O)cc1)C(=O)N[C@@H](Cc1ccc(O)cc1)C(=O)N[C@H](C(=O)N[C@@H](CO)C(=O)N[C@@H](CC(C)C)C(=O)N[C@@H](CCCNC(=N)N)C(=O)N[C@@H](Cc1c[nH]cn1)C(=O)N[C@@H](Cc1ccc(O)cc1)C(=O)N[C@@H](Cc1ccc(O)cc1)C(=O)N[C@@H](CC(N)=O)C(=O)N[C@@H](Cc1c[nH]c2ccccc12)C(=O)N[C@@H](CC(C)C)C(=O)N[C@H](C(=O)N[C@@H](CCCNC(=N)N)C(=O)N[C@@H](CCC(N)=O)C(=O)N[C@@H](CCCNC(=N)N)C(=O)N[C@@H](Cc1ccc(O)cc1)C(N)=O)[C@@H](C)O)C(C)C [Compound 14, N{alpha-4}-(3-methylbutanoyl)-N{epsilon-7}-(6-[(4S)-4-carboxy-4-(17-carboxyheptadecanamido)butanamido]hexanoyl)-[4A,7K,9P,18Q,22V,28Y,30W,31L]-hPYY(4-36)]
8.9 mg/mL	8.7 mg/mL	1.4 nM	–	> 5000 nM	> 5000 nM	> 5000 nM	CC[C@H](C)[C@H](NC(=O)[C@H](Cc1ccc(O)cc1)NC(=O)[C@H](Cc1ccc(O)cc1)NC(=O)[C@H](CCCNC(=N)N)NC(=O)[C@H](CCC(N)=O)NC(=O)[C@@H](NC(=O)[C@H](CCC(=O)O)NC(=O)[C@H](CCC(=O)O)NC(=O)[C@@H]1CCCN1C(=O)[C@H](CO)NC(=O)[C@H](C)NC(=O)[C@H](CC(=O)O)NC(=O)[C@H](C)NC(=O)[C@H](CCC(=O)O)NC(=O)[C@@H]1CCCN1C(=O)[C@H](CCCCNC(=O)CCCCCNC(=O)CC[C@H](NC(=O)CCCCCCCCCCCCCCCCC(=O)O)C(=O)O)NC(=O)[C@H](CCC(=O)O)NC(=O)[C@@H]1CCCN1C(=O)[C@H](C)NC(=O)CC(C)C)[C@@H](C)CC)C(=O)N[C@@H](CO)C(=O)N[C@@H](CC(C)C)C(=O)N[C@@H](CCCNC(=N)N)C(=O)N[C@@H](Cc1c[nH]cn1)C(=O)N[C@@H](Cc1ccc(O)cc1)C(=O)N[C@@H](Cc1ccc(O)cc1)C(=O)N[C@@H](CC(N)=O)C(=O)N[C@@H](Cc1c[nH]c2ccccc12)C(=O)N[C@@H](CC(C)C)C(=O)N[C@H](C(=O)N[C@@H](CCCNC(=N)N)C(=O)N[C@@H](CCC(N)=O)C(=O)N[C@@H](CCCNC(=N)N)C(=O)N[C@@H](Cc1ccc(O)cc1)C(N)=O)[C@@H](C)O [Compound 11, N{alpha-4}-(3-methylbutanoyl)-N{epsilon-7}-(6-[(4S)-4-carboxy-4-(17-carboxyheptadecanamido)butanamido]hexanoyl)[4A,7K,9E,10A,17I,18Q,22I,28Y,30W,31L]-hPYY(4-36)] (Isovaleryl-APEK([Ahx-γGlu-C18 diacid])PEADASPEEIQRYYISLRHYYNWLTRQRY-NH2)
